In assay [1] the target is EPH-B2 (Homo sapiens, UniProt P29323). The assay is described as follows: Dundee protein kinase screen. The assay is classed as biochemical. The following applies: EPH-B2, 1µM; read-out: %Remaining activity at 1µM NU6300. Summed up:
(§1)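 Selectivity panel of 131 protein kinases, inhibitor tested at a single concentration of 1 µM; values are % kinase activity remaining, mean of duplicates. Re-test of selected kinases used 0.5 µM in the standard format and again after a 4 hour pre-incubation with the inhibitor.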

Assay [2] concerns the target PAK2 (Homo sapiens, UniProt Q13177). The assay is described as follows: Dundee protein kinase screen. Particulars: PAK2, 1µM; read-out: %Remaining activity at 1µM NU6300. In kind it is biochemical. Summed up:
as §1

For assay [3], the target named is ERK1 (Homo sapiens, UniProt P27361). The assay is described as follows: Dundee protein kinase screen. The assay is classed as biochemical. The following applies: ERK1, 1µM; read-out: %Remaining activity at 1µM NU6300. Summed up: as §1
Chain of ERK1 (P27361 whole entry): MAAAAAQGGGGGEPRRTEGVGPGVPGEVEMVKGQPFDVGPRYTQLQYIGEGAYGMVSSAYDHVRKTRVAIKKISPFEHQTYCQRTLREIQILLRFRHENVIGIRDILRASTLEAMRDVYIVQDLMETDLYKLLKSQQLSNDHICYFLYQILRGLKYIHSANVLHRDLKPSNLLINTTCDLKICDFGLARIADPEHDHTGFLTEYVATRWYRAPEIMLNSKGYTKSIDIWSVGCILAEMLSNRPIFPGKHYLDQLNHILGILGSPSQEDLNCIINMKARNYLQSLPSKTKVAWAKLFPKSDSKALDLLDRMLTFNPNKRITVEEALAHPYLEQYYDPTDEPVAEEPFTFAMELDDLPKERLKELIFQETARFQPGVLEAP
In assay [4] the target is MARK3 (Homo sapiens, UniProt P27448). The assay is described as follows: Dundee protein kinase screen. The assay is classed as biochemical. The following applies: MARK3, 1µM; read-out: %Remaining activity at 1µM NU6300. Summed up:
as §1

Assay [5] has as its target PRAK (Homo sapiens, UniProt Q8IW41). The assay is described as follows: Dundee protein kinase screen. The assay is classed as biochemical. Particulars: read-out: %Remaining activity at 1µM NU6300. Summed up: as §1
Assay [6] has as its target MNK1 (Homo sapiens, UniProt Q9BUB5). The assay is described as follows: Dundee protein kinase screen. In kind it is biochemical. The following applies: MNK1, 1µM; read-out: %Remaining activity at 1µM NU6300. An outline of the steps:
as §1

For assay [7], the target named is DYRK1A (Homo sapiens, UniProt Q13627). The assay is described as follows: Dundee protein kinase screen. The assay is classed as biochemical. Particulars: read-out: %Remaining activity at 1µM NU6300. An outline of the steps:
as §1

Assay [8] concerns the target ZAP70 (Homo sapiens, UniProt P43403). The assay is described as follows: Dundee protein kinase screen. In kind it is biochemical. Particulars: ZAP70, 1µM; read-out: %Remaining activity at 1µM NU6300. Summed up:
as §1

The target of assay [9] is p38γ MAPK (Homo sapiens, UniProt P53778). The assay is described as follows: Dundee protein kinase screen. In kind it is biochemical. Particulars: read-out: %Remaining activity at 1µM NU6300. Summed up:
as §1

For assay [10], the system named is phosphorylation of Rb at Thr821 in SKUT-1B cells. The assay is described as follows: Inhibition of Rb phosphorylation in cells (western blot). The assay is classed as cell-based. The following applies: Homo sapiens, Skut1B, 1 hr exposure. As to the method:
The cellular potency of NU6300 was examined by measuring the inhibition of Rb phosphorylation following exposure of SKUT-1B cells to the inhibitor for 1 hr. Pre-incubation with 50 μM NU6300 inhibited phosphorylation of Rb at […], a known CDK2 phosphorylation site, by 43%. […] This difference just reached statistical significance (p = 0.04). […] Representative of three different experiments. […] Protein expression levels of phospho-Rb ([…]) were normalized to the levels of total Rb in respective samples using densitometry. Relative protein expression levels are presented as percentage of inhibition of phosphorylation of Rb ([…]) compared with the control cells for each time point. Error bars represent the mean value and SD from three independent experiments. Statistical analysis was performed using the unpaired Student's t test, one-tailed. Western blot analysis was carried out as described previously ([Thomas et al., 2011]) using rabbit anti-[…] phospho-Rb antibody (Invitrogen) or mouse antihuman Rb antibody (BD Pharmingen) to detect phosphorylated and total retinoblastoma protein, respectively. Sample preparation is described in Supplemental Experimental Procedures. page 14: formate) before cryo-coolling. Data processing was carried out using programs of the CCP4 suite (CCP4, 1994). The structure of NU6300 bound to CDK2/cyclin A was solved by molecular replacement using Phaser (McCoy et al., 2007), using as the search model a high-resolution structure of a recruitment peptide bound to CDK2/cyclin A ((Cheng et al., 2006) PDB code 2CCH). A single clear solution was found with an inhibitor bound to each of the two copies of the binary complex in the asymmetric unit. This solution was then subjected to rigid body refinement in REFMAC (Murshudov et al., 1997), to reveal unambiguous electron density in the CDK2 ATP-binding site, consistent with the expected shape of the inhibitor. A model of NU6300 was created using Coot (Emsley et al., 2010). The inhibitor atoms were kept in all subsequent models during refinement carried out by additional rounds of manual rebuilding in Coot and restrained refinement in REFMAC5, including TLS refinement. Towards the end of refinement, waters were added using the Coot water picking utility and manually verified. Western blotting SKUT-1B cells (ATCC, Manassas, USA) were grown in MEM medium supplemented with non-essential amino acids, L-Glutamine, sodium pyruvate and 10% (v/v) foetal calf serum (Sigma, UK). […] Cells were harvested at different time points after the washout and lysed by adding PhosphoSafe extraction reagent (Merck, UK) containing protease inhibitor cocktail (Roche, UK) at the manufacturer's recommended dilution. The harvested cell suspension was placed in an eppendorf tube on ice, centrifuged at 13,000x g for 5 min, and the supernatant (cell lysate) removed for analysis. Subsequent western blot analysis was carried out as described in (Thomas et al., 2011) using rabbit anti-[…] phospho-Rb antibody (Invitrogen, Paisley, UK Cat No. 44-[…]) or mouse anti-human Rb antibody (BD Pharmingen, Oxford, UK Cat No. 554136) to detect phosphorylated and total retinoblastoma protein, respectively.
(Immunoblotting shows a protein as a band on a membrane.)

The structures appear in SMILES notation. Where two headings read alike, the source gives them in different places.

The results in this text go back to paper PMC4579270, “Identification and Characterization of an Irreversible Inhibitor of CDK2” (Chemistry & Biology, 2015).

Chain of ZAP70 (P43403 whole entry): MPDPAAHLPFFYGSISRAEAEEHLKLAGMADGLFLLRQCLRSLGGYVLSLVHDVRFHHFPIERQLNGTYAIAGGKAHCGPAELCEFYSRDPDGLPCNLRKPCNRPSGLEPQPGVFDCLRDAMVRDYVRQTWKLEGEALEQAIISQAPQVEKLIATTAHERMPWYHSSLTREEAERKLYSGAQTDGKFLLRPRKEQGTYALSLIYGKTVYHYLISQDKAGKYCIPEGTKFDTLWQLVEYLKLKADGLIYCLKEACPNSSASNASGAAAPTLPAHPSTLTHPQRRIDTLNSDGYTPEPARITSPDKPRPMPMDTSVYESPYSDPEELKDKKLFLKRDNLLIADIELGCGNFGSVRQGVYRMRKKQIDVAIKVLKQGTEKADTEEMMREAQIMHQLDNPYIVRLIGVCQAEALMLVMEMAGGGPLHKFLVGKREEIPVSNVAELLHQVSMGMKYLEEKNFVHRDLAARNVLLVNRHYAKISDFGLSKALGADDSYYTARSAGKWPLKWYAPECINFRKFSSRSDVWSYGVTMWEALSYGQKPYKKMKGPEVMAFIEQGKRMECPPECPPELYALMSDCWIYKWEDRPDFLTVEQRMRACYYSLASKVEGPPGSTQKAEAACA
Chain of MARK3 (P27448 whole entry): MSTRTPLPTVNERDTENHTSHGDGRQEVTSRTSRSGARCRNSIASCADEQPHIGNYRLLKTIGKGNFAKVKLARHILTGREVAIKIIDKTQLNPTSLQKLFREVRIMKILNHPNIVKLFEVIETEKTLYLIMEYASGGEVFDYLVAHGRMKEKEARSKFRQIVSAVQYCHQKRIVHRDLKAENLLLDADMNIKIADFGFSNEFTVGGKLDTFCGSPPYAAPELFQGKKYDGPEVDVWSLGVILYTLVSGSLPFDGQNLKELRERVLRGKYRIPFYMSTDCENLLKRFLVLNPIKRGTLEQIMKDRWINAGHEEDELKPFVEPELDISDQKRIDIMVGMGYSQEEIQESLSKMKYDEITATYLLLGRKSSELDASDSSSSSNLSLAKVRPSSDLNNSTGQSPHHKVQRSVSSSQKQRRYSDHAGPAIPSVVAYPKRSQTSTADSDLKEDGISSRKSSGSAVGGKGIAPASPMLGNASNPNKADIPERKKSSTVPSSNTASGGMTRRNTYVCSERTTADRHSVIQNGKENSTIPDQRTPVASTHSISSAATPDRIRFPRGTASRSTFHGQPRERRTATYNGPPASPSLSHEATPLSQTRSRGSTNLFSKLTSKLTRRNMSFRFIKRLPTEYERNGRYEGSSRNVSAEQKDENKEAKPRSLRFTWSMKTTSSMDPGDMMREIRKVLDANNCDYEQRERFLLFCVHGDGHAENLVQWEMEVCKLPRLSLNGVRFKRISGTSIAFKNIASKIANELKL
Chain of PAK2 (Q13177 whole entry): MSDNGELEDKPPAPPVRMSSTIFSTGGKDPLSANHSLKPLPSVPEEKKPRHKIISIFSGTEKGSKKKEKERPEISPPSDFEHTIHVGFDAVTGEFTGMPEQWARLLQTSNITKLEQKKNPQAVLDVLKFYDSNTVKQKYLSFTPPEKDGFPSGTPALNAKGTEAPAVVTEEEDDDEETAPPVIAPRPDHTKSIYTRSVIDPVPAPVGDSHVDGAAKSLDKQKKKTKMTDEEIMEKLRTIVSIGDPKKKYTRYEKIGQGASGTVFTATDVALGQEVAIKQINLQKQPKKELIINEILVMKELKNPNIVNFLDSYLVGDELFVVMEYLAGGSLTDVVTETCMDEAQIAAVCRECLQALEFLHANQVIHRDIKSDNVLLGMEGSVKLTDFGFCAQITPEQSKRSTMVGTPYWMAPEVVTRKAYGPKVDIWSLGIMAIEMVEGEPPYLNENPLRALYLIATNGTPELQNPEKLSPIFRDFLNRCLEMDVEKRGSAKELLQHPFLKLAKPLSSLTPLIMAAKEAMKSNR
Chain of p38γ MAPK (P53778 whole entry): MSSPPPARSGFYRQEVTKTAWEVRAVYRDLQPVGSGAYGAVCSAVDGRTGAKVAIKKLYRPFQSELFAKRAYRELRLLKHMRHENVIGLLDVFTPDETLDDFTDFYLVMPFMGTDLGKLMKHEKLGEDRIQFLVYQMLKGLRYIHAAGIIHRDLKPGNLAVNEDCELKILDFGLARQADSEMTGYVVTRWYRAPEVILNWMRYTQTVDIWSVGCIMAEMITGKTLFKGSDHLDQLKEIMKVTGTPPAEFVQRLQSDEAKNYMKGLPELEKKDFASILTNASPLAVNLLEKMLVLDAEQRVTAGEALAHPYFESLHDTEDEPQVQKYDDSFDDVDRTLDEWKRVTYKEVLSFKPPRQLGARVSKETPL
Chain of PRAK (Q8IW41 whole entry): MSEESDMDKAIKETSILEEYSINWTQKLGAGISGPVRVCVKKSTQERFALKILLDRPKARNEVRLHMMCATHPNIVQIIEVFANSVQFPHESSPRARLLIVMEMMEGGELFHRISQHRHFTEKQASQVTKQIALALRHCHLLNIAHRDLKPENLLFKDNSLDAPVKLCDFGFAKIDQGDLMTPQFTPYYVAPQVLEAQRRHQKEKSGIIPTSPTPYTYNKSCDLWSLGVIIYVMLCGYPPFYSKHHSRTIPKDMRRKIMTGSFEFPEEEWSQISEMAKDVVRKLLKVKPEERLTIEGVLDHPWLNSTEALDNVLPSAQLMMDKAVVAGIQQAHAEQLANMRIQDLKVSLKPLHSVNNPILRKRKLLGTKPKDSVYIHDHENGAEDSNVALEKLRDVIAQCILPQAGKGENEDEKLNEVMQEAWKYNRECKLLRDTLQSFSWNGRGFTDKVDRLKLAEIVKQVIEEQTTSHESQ
Chain of EPH-B2 (P29323 19-1055): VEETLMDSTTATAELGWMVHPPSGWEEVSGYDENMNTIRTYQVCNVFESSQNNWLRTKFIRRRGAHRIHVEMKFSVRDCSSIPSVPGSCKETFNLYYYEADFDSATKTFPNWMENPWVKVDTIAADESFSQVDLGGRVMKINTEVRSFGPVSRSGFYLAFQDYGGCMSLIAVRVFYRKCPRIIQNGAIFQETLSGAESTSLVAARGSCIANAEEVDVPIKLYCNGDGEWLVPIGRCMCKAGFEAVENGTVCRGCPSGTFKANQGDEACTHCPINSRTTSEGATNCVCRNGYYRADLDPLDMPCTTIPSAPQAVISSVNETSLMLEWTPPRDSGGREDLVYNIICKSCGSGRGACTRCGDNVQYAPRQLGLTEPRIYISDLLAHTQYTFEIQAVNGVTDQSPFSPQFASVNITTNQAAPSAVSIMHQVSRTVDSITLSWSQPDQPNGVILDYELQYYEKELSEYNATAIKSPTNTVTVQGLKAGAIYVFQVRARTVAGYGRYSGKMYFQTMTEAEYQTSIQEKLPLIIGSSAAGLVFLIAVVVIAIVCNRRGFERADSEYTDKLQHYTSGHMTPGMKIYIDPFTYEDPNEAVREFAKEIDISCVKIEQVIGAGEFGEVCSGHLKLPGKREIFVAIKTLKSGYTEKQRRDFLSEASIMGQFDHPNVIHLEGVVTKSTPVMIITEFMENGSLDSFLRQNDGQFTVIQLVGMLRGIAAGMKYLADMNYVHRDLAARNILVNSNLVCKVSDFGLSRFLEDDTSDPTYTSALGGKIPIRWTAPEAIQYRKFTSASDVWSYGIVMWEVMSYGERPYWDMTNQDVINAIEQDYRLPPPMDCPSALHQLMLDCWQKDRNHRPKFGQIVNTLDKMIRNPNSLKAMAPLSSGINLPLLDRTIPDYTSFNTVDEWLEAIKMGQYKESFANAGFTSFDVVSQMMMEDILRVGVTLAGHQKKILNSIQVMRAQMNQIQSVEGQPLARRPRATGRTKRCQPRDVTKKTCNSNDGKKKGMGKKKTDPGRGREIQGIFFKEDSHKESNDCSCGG
Chain of MNK1 (Q9BUB5 whole entry): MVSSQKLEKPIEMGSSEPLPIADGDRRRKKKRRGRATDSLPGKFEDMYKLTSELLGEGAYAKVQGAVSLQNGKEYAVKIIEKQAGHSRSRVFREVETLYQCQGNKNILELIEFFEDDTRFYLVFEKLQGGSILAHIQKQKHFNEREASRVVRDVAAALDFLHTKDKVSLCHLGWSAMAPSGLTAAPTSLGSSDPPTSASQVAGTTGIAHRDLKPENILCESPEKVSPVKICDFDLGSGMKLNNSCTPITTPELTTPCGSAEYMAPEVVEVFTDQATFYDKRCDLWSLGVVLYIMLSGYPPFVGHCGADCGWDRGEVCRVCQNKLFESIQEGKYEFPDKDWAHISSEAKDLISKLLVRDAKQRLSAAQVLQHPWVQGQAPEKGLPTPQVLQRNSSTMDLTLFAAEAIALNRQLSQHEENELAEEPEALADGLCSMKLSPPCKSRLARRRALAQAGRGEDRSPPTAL

One may read the remaining activity as the signal under treatment as a percentage of the control signal. One may read the inhibition as the change of the read-out against control, counted positive when it falls. In the case of `C=CS(=O)(=O)c1ccc(Nc2nc(OCC3CCCCC3)c3nc[nH]c3n2)cc1` [NU6300, 6-(cyclohexylmethoxy)-N-(4-(vinylsulfonyl)phenyl)-9H-purin-2-amine], the remaining activity at 1 µM in assay [1] was determined as 96%; in assay [2] it was 92%; in assay [3], 70%; in [4] it was 71%; in [5] it was 77%; in assay [6] it was 102%. The remaining activity at 1 µM in assay [7] was 73%; in assay [8] it was 90%; in [9], 104%. For the same molecule, the inhibition at 50 µM amounted to 43% in [10] (before washout, read-out: inhibition of phosphorylation of Rb at Thr821) and 33% in assay [10] (then 1-hr washout in drug-free media, read-out: inhibition of phosphorylation of Rb at Thr821 after washout).
